Results from article PMC3382171 (PLoS ONE, 2012).

Tests used:
Assay in all cases: biochemical
MAPKAPK3 = MAPKAPK3 (Homo sapiens, UniProt Q16644); design: gene MAPKAPK3; settings: read-out: Dundee KSS % inhibition at 1uM
Protocol: The METi and RAFi were screened against kinase panels (SelectScreen, Invitrogen; University of Dundee, Division of Signal Transduction Therapy, UK; Upstate Biotechnology/Millipore, Billerica, MA). In these selectivity assays the concentration of ATP was set to the Km value of ATP for each kinase tested to allow for a relative potency comparison between the various kinases. The compounds were tested at 1 µM final concentration. […] (A) Kinase selectivity screen (KSS) performed at Upstate Biotechnology. […] (B) KSS performed at University of Dundee (Division of Signal Transduction Therapy). […] (PDF) Click here for additional data file.

rat AMPKa2 = target: T1, rat AMPKa2 (Rattus norvegicus, UniProt Q09137); design: University of Dundee kinase panel, percent inhibition of phosphorylation at 1 uM RAFi, ATP at Km; settings: read-out: Dundee KSS %inh at 1 uM
T1 construct: gene Prkaa2
Protocol: (§1) The METi and RAFi were screened against kinase panels (SelectScreen, Invitrogen; University of Dundee, Division of Signal Transduction Therapy, UK; Upstate Biotechnology/Millipore, Billerica, MA). In these selectivity assays the concentration of ATP was set to the Km value of ATP for each kinase tested to allow for a relative potency comparison between the various kinases. The compounds were tested at 1 µM final concentration. […] Supplementary file pone.0039653.s002.pdf: Figure S2 Kinase Selectivity Screen of RAFi. (A) Kinase selectivity screen (KSS) performed at University of Dundee (Division of Signal Transduction Therapy). Values in % inhibition of phosphorylation given 1 µM of RAFi compared to control. (B) KSS performed at Invitrogen (Selectscreen Service) compared to control. Values in % inhibition of phosphorylation given 1 µM of RAFi. (C) Cell based dose response kinase inhibition of indicated kinases by RAFi. (PDF) Click here for additional data file.

NEK2 = NEK2 (Homo sapiens, UniProt P51955); design: University of Dundee kinase panel, percent inhibition of phosphorylation at 1 uM RAFi, ATP at Km; settings: read-out: Dundee KSS %inh at 1 uM
Protocol: as §1

CSK = CSK (Homo sapiens, UniProt P41240); design: University of Dundee kinase panel, percent inhibition of phosphorylation at 1 uM RAFi, ATP at Km; settings: read-out: Dundee KSS %inh at 1 uM
Sequence of CSK (P41240 whole entry): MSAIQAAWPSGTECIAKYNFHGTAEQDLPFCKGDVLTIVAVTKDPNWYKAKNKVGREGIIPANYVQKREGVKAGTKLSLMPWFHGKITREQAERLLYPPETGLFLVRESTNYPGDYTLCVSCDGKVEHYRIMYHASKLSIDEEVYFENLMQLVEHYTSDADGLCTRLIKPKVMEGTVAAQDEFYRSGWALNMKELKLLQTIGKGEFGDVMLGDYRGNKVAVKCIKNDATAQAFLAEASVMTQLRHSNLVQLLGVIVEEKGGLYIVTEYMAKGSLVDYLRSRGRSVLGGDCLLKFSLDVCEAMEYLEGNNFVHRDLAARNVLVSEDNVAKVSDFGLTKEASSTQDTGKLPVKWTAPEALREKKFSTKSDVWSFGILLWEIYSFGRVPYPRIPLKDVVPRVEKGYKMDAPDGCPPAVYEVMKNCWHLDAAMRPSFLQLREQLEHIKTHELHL
Protocol: as §1

CDK2 = CDK2 (Homo sapiens, UniProt P24941); design: University of Dundee kinase panel, percent inhibition of phosphorylation at 1 uM RAFi, ATP at Km; settings: read-out: Dundee KSS %inh at 1 uM
Protocol: as §1

AURB = target: T2, AURB (Homo sapiens, UniProt Q96GD4); design: University of Dundee kinase panel, percent inhibition of phosphorylation at 1 uM RAFi, ATP at Km; settings: read-out: Dundee KSS %inh at 1 uM
T2 construct: gene AURKB
T2 sequence (Q96GD4 whole entry): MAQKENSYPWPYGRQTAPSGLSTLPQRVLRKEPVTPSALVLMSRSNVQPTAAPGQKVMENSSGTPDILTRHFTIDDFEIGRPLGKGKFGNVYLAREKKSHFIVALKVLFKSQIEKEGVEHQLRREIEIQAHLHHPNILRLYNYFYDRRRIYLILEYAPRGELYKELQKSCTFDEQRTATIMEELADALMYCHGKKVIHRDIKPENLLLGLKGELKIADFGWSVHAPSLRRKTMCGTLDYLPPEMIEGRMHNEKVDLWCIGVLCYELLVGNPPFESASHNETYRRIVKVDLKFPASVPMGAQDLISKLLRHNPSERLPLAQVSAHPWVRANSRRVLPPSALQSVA
Protocol: as §1

NEK6 = NEK6 (Homo sapiens, UniProt Q9HC98); design: University of Dundee kinase panel, percent inhibition of phosphorylation at 1 uM RAFi, ATP at Km; settings: read-out: Dundee KSS %inh at 1 uM
Sequence of NEK6 (Q9HC98 whole entry): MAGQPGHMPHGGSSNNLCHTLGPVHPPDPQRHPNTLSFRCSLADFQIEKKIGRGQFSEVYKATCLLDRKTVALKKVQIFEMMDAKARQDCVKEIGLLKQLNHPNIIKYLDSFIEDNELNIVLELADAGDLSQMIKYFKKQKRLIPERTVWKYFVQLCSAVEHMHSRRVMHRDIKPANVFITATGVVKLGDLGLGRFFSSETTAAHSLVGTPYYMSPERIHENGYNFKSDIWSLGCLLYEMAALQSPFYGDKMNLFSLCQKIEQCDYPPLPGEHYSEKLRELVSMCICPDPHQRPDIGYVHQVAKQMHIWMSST
Protocol: as §1

AKT2 = AKT2 (Homo sapiens, UniProt P31751); design: University of Dundee kinase panel, percent inhibition of phosphorylation at 1 uM RAFi, ATP at Km; settings: read-out: Dundee KSS %inh at 1 uM
Sequence of AKT2 (P31751 whole entry): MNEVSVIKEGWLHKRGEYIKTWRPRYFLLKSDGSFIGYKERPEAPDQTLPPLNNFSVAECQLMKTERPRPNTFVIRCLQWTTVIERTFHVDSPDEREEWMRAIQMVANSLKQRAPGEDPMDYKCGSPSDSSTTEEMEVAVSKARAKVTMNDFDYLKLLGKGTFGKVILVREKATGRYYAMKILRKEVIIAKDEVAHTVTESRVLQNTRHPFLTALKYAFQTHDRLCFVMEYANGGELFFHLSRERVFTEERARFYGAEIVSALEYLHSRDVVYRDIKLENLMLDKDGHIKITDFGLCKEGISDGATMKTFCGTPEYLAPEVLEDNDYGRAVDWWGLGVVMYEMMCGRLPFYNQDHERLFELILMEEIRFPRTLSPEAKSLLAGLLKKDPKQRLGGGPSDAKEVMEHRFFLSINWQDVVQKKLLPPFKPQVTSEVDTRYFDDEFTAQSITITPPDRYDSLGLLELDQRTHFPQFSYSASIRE
Protocol: as §1

CAMKKB = target: T3, CAMKKB (Homo sapiens, UniProt Q96RR4); design: University of Dundee kinase panel, percent inhibition of phosphorylation at 1 uM RAFi, ATP at Km; settings: read-out: Dundee KSS %inh at 1 uM
T3 construct: gene CAMKK2
Protocol: as §1

p38d = target: T4, p38d (Homo sapiens, UniProt O15264); design: University of Dundee kinase panel, percent inhibition of phosphorylation at 1 uM RAFi, ATP at Km; settings: read-out: Dundee KSS %inh at 1 uM
T4 construct: gene MAPK13
T4 sequence (O15264 whole entry): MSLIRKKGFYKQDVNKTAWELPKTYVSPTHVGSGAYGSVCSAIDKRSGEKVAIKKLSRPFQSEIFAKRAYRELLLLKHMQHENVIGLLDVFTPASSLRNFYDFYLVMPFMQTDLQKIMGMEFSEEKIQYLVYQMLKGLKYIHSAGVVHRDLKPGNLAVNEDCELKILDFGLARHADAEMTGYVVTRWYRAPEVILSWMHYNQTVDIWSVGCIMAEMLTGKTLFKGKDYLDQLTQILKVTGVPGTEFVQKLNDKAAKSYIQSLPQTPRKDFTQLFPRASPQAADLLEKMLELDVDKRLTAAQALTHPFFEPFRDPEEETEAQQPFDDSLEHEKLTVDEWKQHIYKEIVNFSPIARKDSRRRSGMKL
Protocol: as §1

RSK2 = target: T5, RSK2 (Homo sapiens, UniProt P51812); design: University of Dundee kinase panel, percent inhibition of phosphorylation at 1 uM RAFi, ATP at Km; settings: read-out: Dundee KSS %inh at 1 uM
T5 construct: gene RPS6KA3
Protocol: as §1

rat MNB = target: T6, rat MNB (Rattus norvegicus, UniProt Q63470); design: University of Dundee kinase panel, percent inhibition of phosphorylation at 1 uM RAFi, ATP at Km; settings: read-out: Dundee KSS %inh at 1 uM
T6 construct: gene Dyrk1a
Protocol: as §1

PBK = PBK (Homo sapiens, UniProt Q96KB5); design: University of Dundee kinase panel, percent inhibition of phosphorylation at 1 uM RAFi, ATP at Km; settings: read-out: Dundee KSS %inh at 1 uM
Sequence of PBK (Q96KB5 whole entry): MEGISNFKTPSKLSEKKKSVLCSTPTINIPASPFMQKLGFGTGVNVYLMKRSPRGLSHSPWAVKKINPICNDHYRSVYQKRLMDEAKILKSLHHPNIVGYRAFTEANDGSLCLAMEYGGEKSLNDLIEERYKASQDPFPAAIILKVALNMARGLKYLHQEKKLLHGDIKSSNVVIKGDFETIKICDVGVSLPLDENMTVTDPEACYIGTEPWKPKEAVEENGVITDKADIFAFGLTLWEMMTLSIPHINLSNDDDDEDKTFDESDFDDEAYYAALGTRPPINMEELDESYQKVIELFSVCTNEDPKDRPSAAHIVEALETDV
Protocol: as §1

SRPK1 = SRPK1 (Homo sapiens, UniProt Q96SB4); design: University of Dundee kinase panel, percent inhibition of phosphorylation at 1 uM RAFi, ATP at Km; settings: read-out: Dundee KSS %inh at 1 uM
Protocol: as §1

MNK1 = target: T7, MNK1 (Homo sapiens, UniProt Q9BUB5); design: University of Dundee kinase panel, percent inhibition of phosphorylation at 1 uM RAFi, ATP at Km; settings: read-out: Dundee KSS %inh at 1 uM
T7 construct: gene MKNK1
T7 sequence (Q9BUB5 whole entry): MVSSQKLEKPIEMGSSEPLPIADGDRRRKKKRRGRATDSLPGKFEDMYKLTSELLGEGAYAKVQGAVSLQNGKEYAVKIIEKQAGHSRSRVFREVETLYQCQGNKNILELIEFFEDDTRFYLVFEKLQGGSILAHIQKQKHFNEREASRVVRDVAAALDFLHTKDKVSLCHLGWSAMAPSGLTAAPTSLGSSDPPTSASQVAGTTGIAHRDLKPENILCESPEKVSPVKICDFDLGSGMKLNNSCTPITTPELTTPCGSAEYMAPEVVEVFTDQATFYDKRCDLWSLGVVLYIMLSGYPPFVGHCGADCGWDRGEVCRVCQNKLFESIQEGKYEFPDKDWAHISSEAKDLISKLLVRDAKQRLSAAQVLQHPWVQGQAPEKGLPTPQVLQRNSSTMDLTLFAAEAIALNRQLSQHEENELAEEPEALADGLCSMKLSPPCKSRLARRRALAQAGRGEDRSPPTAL
Protocol: as §1

IKKb = target: T8, IKKb (Homo sapiens, UniProt O14920); design: University of Dundee kinase panel, percent inhibition of phosphorylation at 1 uM RAFi, ATP at Km; settings: read-out: Dundee KSS %inh at 1 uM
T8 construct: gene IKBKB
Protocol: as §1

MARK3 = MARK3 (Homo sapiens, UniProt P27448); design: University of Dundee kinase panel, percent inhibition of phosphorylation at 1 uM RAFi, ATP at Km; settings: read-out: Dundee KSS %inh at 1 uM
Sequence of MARK3 (P27448 whole entry): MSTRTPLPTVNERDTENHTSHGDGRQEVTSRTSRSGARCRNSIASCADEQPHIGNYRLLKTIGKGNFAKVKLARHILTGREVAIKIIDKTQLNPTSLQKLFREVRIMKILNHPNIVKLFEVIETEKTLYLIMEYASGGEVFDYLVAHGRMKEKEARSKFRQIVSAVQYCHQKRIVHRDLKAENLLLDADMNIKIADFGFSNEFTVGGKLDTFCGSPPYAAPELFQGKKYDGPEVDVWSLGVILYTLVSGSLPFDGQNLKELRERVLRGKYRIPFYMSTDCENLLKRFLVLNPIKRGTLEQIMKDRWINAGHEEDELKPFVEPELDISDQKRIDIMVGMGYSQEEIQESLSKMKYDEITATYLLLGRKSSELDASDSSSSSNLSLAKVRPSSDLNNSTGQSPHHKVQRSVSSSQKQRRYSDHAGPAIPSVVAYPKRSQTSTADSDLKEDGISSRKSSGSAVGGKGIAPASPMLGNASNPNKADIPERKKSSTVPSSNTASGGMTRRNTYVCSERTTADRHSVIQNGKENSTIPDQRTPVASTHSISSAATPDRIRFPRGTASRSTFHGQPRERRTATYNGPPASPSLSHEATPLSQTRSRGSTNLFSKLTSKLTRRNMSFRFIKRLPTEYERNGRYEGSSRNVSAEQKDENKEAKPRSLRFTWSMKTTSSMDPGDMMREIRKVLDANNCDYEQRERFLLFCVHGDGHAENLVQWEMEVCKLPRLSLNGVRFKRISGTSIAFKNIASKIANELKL
Protocol: as §1

PDK1 = target: T9, PDK1 (Homo sapiens, UniProt O15530); design: University of Dundee kinase panel, percent inhibition of phosphorylation at 1 uM RAFi, ATP at Km; settings: read-out: Dundee KSS %inh at 1 uM
T9 construct: gene PDPK1
T9 sequence (O15530 whole entry): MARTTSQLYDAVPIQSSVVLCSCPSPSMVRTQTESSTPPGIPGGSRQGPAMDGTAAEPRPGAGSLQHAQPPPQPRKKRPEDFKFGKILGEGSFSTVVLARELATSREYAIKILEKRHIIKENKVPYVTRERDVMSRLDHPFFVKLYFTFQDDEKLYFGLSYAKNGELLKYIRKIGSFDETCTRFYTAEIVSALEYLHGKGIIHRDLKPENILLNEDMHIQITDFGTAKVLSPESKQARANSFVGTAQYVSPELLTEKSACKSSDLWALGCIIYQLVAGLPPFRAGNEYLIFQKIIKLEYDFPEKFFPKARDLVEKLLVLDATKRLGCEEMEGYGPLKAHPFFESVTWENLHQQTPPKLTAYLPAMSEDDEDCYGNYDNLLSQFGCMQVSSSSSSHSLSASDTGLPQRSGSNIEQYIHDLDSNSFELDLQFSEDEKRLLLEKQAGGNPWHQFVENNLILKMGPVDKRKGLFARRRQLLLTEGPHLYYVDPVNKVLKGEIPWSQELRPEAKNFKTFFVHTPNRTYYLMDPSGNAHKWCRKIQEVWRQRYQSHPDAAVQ
Protocol: as §1

PIM1 = PIM1 (Homo sapiens, UniProt P11309); design: University of Dundee kinase panel, percent inhibition of phosphorylation at 1 uM RAFi, ATP at Km; settings: read-out: Dundee KSS %inh at 1 uM
Sequence of PIM1 (P11309 whole entry): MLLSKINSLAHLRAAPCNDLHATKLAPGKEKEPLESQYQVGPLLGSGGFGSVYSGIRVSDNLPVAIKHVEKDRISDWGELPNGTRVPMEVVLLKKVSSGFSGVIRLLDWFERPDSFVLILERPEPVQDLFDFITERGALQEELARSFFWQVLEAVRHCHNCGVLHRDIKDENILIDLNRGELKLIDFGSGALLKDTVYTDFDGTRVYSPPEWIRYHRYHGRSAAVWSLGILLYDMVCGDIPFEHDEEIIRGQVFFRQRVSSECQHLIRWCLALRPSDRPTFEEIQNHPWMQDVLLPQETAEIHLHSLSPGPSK
Protocol: as §1

Sequence of MAPKAPK3 (Q16644 whole entry): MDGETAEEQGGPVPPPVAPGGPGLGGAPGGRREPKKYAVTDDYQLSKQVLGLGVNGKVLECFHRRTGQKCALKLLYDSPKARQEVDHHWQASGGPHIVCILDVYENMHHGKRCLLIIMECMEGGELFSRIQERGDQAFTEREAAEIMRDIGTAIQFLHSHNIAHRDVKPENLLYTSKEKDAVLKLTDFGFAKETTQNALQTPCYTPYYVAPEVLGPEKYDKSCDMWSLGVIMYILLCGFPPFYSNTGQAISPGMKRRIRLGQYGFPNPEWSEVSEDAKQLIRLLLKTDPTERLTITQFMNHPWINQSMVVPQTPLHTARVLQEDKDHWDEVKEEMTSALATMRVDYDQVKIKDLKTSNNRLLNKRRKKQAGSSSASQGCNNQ

Compound | inhibition at 1 µM (MAPKAPK3) [%] | inhibition at 1 µM (rat AMPKa2) [%] | inhibition at 1 µM (NEK2) [%] | inhibition at 1 µM (CSK) [%] | inhibition at 1 µM (CDK2) [%] | inhibition at 1 µM (AURB) [%] | inhibition at 1 µM (NEK6) [%] | inhibition at 1 µM (AKT2) [%] | inhibition at 1 µM (CAMKKB) [%] | inhibition at 1 µM (p38d) [%] | inhibition at 1 µM (RSK2) [%] | inhibition at 1 µM (rat MNB) [%] | inhibition at 1 µM (PBK) [%] | inhibition at 1 µM (SRPK1) [%] | inhibition at 1 µM (MNK1) [%] | inhibition at 1 µM (IKKb) [%] | inhibition at 1 µM (MARK3) [%] | inhibition at 1 µM (PDK1) [%] | inhibition at 1 µM (PIM1) [%]
OCCn1cc(-c2cnc3nnn(Cc4ccc5ncccc5c4)c3n2)cn1 [METi, PF-04217903] | 18.6 | – | – | – | – | – | – | – | – | – | – | – | – | – | – | – | – | – | –
N#CCCNc1nccc(-c2cn(CC(F)F)nc2-c2cnc3[nH]ccc3c2)n1 [RAFi, PF-04880594] | – | 15 | 73 | -4 | 38 | 16 | 13 | 28 | 16 | 9 | 30 | 4 | -2 | 5 | 7 | 4 | 20 | 11 | 4
